Test system: Culex quinquefasciatus mosquito
Assay: USDA Petri Dish Method, 3 min exposure to dipped fiberglass window screen
Assay type: in vivo
Details: Table 29, aqueous deltamethrin/adjuvant
Procedure: MATERIALS AND METHODS: Aqueous solutions of 1% deltamethrin with and without adjuvant were prepared using product sold under the tradename Suspend® SC. […] Pre-cut fiberglass screen (5″×5″, or 161.3 cm^2) were dipped in each treatment solution and excessive solution was allowed to drain completely. Weight of the solution coated on the screen was then determined. The treated screen was then allowed to air-dry overnight. USDA Petri Dish Method was used as initial screening protocol. Twenty, 4-6 day old female Culex quinquefasciatus were exposed to treated window screen for 3 minutes and then moved onto a clean untreated white paper index card. Treatments were replicated a minimum of three times. Mosquito knockdown was evaluated at 3 minute intervals for the first 15 minutes and then at 5 minute intervals for the remainder of an hour. A small cotton ball soaked in sucrose solution was added on the screen top of the petri-dish as a drinking source. Mortality was evaluated at 24 hours after exposure.

CC1(C)[C@H](C(=O)O[C@H](C#N)c2cccc(Oc3ccccc3)c2)[C@@H]1C=C(Br)Br [deltamethrin (1%)]
Average % Knockdown & Mortality after 15 min (15 min): 0% | Average % Knockdown & Mortality after 30 min (30 min): 2% | Average % Knockdown & Mortality after 45 min (45 min): 3% | Average % Knockdown & Mortality after 60 min (60 min): 8% | Average % Knockdown & Mortality after 4 hr (4 hr): 52% | Average % Knockdown & Mortality after 24 hr (24 hr): 86%

— patent publication US9028856B2, “Synergistic pesticide compositions” (priority 2008, dated 2015)
